Entries after “also recorded” stand apart in the source; their conditions may differ. Like-named read-outs stand apart in the source and are kept apart here.
How the values were obtained:
[1] = target: T1, thymidine phosphorylase (TP) enzyme (Escherichia coli, UniProt P07650); test: Mechanistic (kinetic) studies on TP, Lineweaver-Burk plot and secondary re-plot; type: biochemical, E. coli; conditions: for Type of inhibition: Lineweaver-Burk plot, substrate thymidine
T1 construct: purchased Sigma Aldrich, USA
T1 sequence (P07650 whole entry): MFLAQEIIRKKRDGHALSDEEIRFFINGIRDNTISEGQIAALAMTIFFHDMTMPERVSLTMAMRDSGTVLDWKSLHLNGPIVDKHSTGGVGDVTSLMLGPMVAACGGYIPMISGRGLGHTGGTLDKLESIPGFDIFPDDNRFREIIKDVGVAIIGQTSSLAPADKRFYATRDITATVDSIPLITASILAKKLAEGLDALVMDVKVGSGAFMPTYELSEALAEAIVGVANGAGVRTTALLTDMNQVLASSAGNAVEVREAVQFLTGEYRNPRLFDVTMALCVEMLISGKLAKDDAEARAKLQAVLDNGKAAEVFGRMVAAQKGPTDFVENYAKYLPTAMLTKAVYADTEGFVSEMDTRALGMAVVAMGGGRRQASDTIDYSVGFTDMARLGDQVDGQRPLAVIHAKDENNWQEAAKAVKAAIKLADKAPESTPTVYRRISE
Experimental: In mechanistic studies, TP enzyme was incubated with different concentrations of inhibitors at 30°C for 10 min. Reaction was then initiated by adding four different concentrations of substrate, i.e. thymidine (0.1875–1.5 mM). Enzyme activity was measured under steady state conditions by measuring changes in absorbance for another 10 min at 30°C at 290 nm, on microtiter plate reader (Spectramax, M5, Molecular Devices, CA, USA). Every experiment is performed in triplicate.
Lineweaver-Burk plot was used to determine the type of inhibition, where the reciprocal of rate of the reaction were plotted against the reciprocal of substrate concentration. Dissociation constant (Ki) were determined by secondary re-plot of Lineweaver-Burk plots. Kinetic data was analysed by GraFit 7 data analysis software (purchased from Erithacus Software Limited, UK).

[2] = target: T2, thymidine phosphorylase (TP), recombinant E. coli TP enzyme (Escherichia coli, UniProt P07650); test: Thymidine phosphorylase inhibition assay (spectrophotometric); type: biochemical; conditions: 1.5 mM thymidine, 30°C, pH 7.0, 290 nm, test compounds screened at 500 μM
T2 construct: purchased Sigma Aldrich, USA
T2 sequence (P07650 whole entry): as above
Experimental: In the current study, we have used commercially available recombinant E. coli TP enzyme, as human TP is not easily accessible.
Thymidine phosphorylase inhibition assay was carried out spectrophotometrically. Briefly, 0.058 U of TP enzyme (E.C. No. 2.4.2.4, E. coli) was incubated with 500 μM of test compounds at 30°C for 10 minutes. After that 1.5 mM of substrate thymidine was added to 96-well plate, and changes in absorbance were monitored for 10 minutes at 290 nm in microtiter plate reader (Spectramax, M5, Molecular Devices, CA, USA). Enzyme and substrate solution were prepared in 50 mM phosphate buffer of pH 7.0, while test compounds were prepared in DMSO (final concentration 4.5%).
Enzyme activity was measured under steady-state conditions by observing changes in absorbance for 10 min (at 290 nm) on microtiter plate reader (Spectra Max M5, Molecular Devices, CA, USA). Changes in absorbance upon addition of test compounds were analyzed with the SoftMax Pro 4.8 software which was purchased from Molecular Devices, CA, USA. To calculate the percent inhibition, following formula was used: % Inhibition = 100-Absorbance of test compound/Absorbance of control×100
Inhibitory potential of test compounds is represented in Figs 1–4 as IC50 value (Inhibitory concentration). […] It was calculated by measuring the effects of different concentrations of inhibitors on the degradation of thymidine. EZ-Fit, Enzyme kinetics software (purchased from Perrella Scientific, Inc., USA) was used to deduce the IC50 values.

[3] = In vitro MTT cytotoxicity assay; type: cell-based, mouse; conditions: mouse, 3T3 mouse fibroblast cells, 3T3 cells, 48 hrs incubation, read-out: Cytotoxicity IC50 (μM ± SD)
Experimental: (§1) The reduction of MTT can only occur in metabolically active cell, so the enzyme activity is actually a measure of cell viability.
(§2) Briefly, the mouse fibroblast cells (3T3) were cultured in DMEM media containing 5% FBS, 100 IU/ mL penicillin, and 100 μg/ mL streptomycin. Cell suspension (5×10^4cells/ mL) was dispensed in flat-bottomed 96-well plates, and incubated at 37°C and with 5% CO2. After the overnight incubation, old media was aspirated and fresh media containing different concentrations of compounds (prepared in DMSO) were added, and plate was further incubated for 48 hrs. After that, MTT dye (0.5 mg/ mL) was added into each well, and the plate was further incubated for 4 hrs. Following this, DMSO (100 μL) was added into each well, and the level of MTT reduction to formazan with in the cells was calculated by taking the absorbance at 540 nm using a micro plate reader (Spectra Max plus, Molecular Devices, CA, USA).
(§3) Cellular viability was measured for 10 min, at 570 nm on microtiter plate reader. Changes in absorbance upon addition of test compounds were analyzed with the SoftMax Pro 4.8 software which was purchased from Molecular Devices, CA, USA. Percent inhibition was calculated using the formula mentioned earlier.
(§4) It was calculated by measuring the effects of different concentrations of inhibitors on the growth of cells. EZ-Fit, Enzyme kinetics software was used to deduce the IC50 values.

[4] = system: mouse fibroblast (3T3) cell line; test: In vitro MTT cytotoxicity assay; type: cell-based; conditions: 3T3 cells, 48 hrs incubation
Experimental: as §1, §2, §3, §4

[5] = read-out: TP Inhibition IC50 (μM ± SEM)
[6] = thymidine 0.1875–1.5 mM, 30°C, secondary re-plot of Lineweaver-Burk plot, read-out: Ki ± SEM (dissociation constant)

Row | Compound | Type of inhibition [1] | IC50 [2, 5] [µM] | Ki [1, 6] [µM] | other results
1 | O=c1[nH]c(=O)c2cc[nH]c2[nH]1 [7-Deazaxanthine, 7-deazaxanthine, reference compound] | Non-competitive | – | – | –
2 | O=c1cc(-c2ccccc2)oc2ccccc12 [Compound 1] | Uncompetitive | 195.1 ± 1.1 | 225 ± 0.002 | IC50 at 48 h [3]: 29.1 ± 0.61 µM
3 | COc1cc(O)c2c(=O)cc(-c3c(OC)ccc(O)c3O)oc2c1 [Compound 2] | – | 113 | – | –
4 | O=c1cc(-c2ccc(O)cc2)oc2cc(O)cc(O)c12 [Compound 3] | – | – | – | TP Inhibition IC50 (μM ± SEM) [2]: inactive
5 | O=c1cc(-c2ccccc2)oc2cc(O)cc(O)c12 [Compound 4] | – | – | – | TP Inhibition IC50 (μM ± SEM) [2]: inactive
6 | COc1c(O)cc2oc(-c3ccc(O)c(O)c3)c(O)c(=O)c2c1O [Compound 5] | Mixed | 76.8 ± 1.1 | 341.1 ± 0.01 | –
7 | O=c1ccc2ccccc2o1 [Compound 6, coumarin] | Uncompetitive | 420 ± 6.15 | 171 ± 0.001 | –
8 | COc1c2ccoc2cc2oc(=O)ccc12 [Compound 7] | – | 344.2 ± 1.2 | – | –
9 | CC1(C)C=Cc2c(ccc3ccc(=O)oc23)O1 [Compound 8] | Uncompetitive | 181.1 ± 0.6 | 162 ± 0.001 | –
10 | COc1cc2ccc(=O)oc2cc1O [Compound 9] | Non-competitive | 193.4 ± 1 | 419 ± 0.001 | –
11 | COc1cc2ccc(=O)oc2cc1O[C@@H]1O[C@H](CO[C@@H]2OC[C@](O)(CO)[C@H]2O)[C@@H](O)[C@H](O)[C@H]1O [Compound 10] | Uncompetitive | – | – | IC50 ([2]; TP Inhibition IC50 (μM ± SEM)): 295.2 ± 2 µM; Ki [1]: 145 ± 0.001 µM
12 | COc1cc2c(cc1OC)-c1c(OC)c(OC)cc3c1[C@H](C2)N(C)CC3 [Compound 11, Glaucine HBr] | Uncompetitive | 238.5 ± 2.1 | 180 ± 0.01 | –
13 | O=C(O)/C=C/c1ccccc1 [Compound 15, Cinnamic acid] | – | – | – | IC50 ([2]; TP Inhibition IC50 (μM ± SEM)): 349.7 ± 1.4 µM
14 | O=C(O)c1cc(O)c(O)c(O)c1 [Compound 16, Gallic acid] | – | – | – | TP Inhibition IC50 (μM ± SEM) [2]: inactive
15 | COc1cc(C(=O)O)ccc1O [Compound 17, Vanillic acid] | – | – | – | TP Inhibition IC50 (μM ± SEM) [2]: inactive
16 | C[C@H](Cc1ccc(O)c(O)c1)[C@@H](C)Cc1ccc(O)c(O)c1 [Compound 18, Masoprocol] | competitive inhibitor | 44 ± 0.5 | 25.6 ± 0.008 | Cytotoxicity IC50 (μM ± SD) [4]: non-toxic; also recorded: non-cytotoxic
17 | C[C@@H]1C[C@@H]([C@H](O)CC2CC(=O)NC(=O)C2)C(=O)[C@@H](C)C1 [Cyclohexamide, cycloheximide, reference compound] | – | – | – | IC50 ([4]; read-out: Cytotoxicity IC50 (μM ± SD)): 0.2 ± 0.1 µM
18 | N=C1CCCN1Cc1[nH]c(=O)[nH]c(=O)c1Cl [Tipiracil, tipiracil, reference compound] | – | 0.014 ± 0.002 | – | –
